Assay results: the NIST ThermoML archive (doi:10.1021/je500936y)

Assays:
[1] = refractive index (Na D-line) (dimensionless); xn = mol fraction of the nth substance listed; conditions: 100 kPa, Liquid, Standard Abbe refractometry
[2] = xn = mol fraction of the nth substance listed; conditions: 100 kPa, Liquid; for speed of sound: Frequency=3 MHz, Sing-around technique in a fixed-path interferometer; for mass density: Vibrating tube method

C=CN1CCCC1=O [N-vinylpyrrolidone] + CCCCn1cc[n+](C)c1.F[B-](F)(F)F
Conditions | mass density, [2] [kg/m3] | refractive index, [1] | speed of sound, [2] [m/s]
298.15 K, x2 = 0 | 1039.36 | 1.51119 | 1521.5
298.15 K, x2 = 0.1046 | 1069.96 | 1.4987 | 1537.3
298.15 K, x2 = 0.2035 | 1093.11 | 1.48698 | 1546
298.15 K, x2 = 0.3042 | 1113.53 | 1.47636 | 1552.7
298.15 K, x2 = 0.406 | 1131.03 | 1.46672 | 1557.8
298.15 K, x2 = 0.4945 | 1144.21 | 1.45868 | 1560.6
298.15 K, x2 = 0.607 | 1159.22 | 1.44913 | 1563.2
298.15 K, x2 = 0.697 | 1170.1 | 1.44241 | 1564.4
298.15 K, x2 = 0.7828 | 1179.78 | – | 1565.8
298.15 K, x2 = 0.9104 | 1191.59 | 1.42725 | 1566.1
303.15 K, x2 = 0 | 1034.95 | 1.50886 | 1502.5
303.15 K, x2 = 0.1046 | 1065.76 | 1.49659 | 1519.9
303.15 K, x2 = 0.2035 | 1089.01 | 1.48494 | 1529.6
303.15 K, x2 = 0.3042 | 1109.53 | 1.4745 | 1537.2
303.15 K, x2 = 0.406 | 1127.12 | 1.4648 | 1543
303.15 K, x2 = 0.4945 | 1140.37 | 1.45699 | 1546.2
303.15 K, x2 = 0.607 | 1155.45 | 1.44651 | 1549.5
303.15 K, x2 = 0.697 | 1166.39 | 1.44097 | 1551.4
303.15 K, x2 = 0.7828 | 1176.14 | 1.43197 | 1553
303.15 K, x2 = 0.9104 | 1187.99 | 1.42592 | 1553.9
308.15 K, x2 = 0 | 1030.55 | 1.5065 | 1483.7
308.15 K, x2 = 0.1046 | 1061.54 | 1.49444 | 1502.4
308.15 K, x2 = 0.2035 | 1084.92 | 1.48295 | 1513
308.15 K, x2 = 0.3042 | 1105.54 | 1.47251 | 1521.5
308.15 K, x2 = 0.406 | 1123.22 | 1.46308 | 1528
308.15 K, x2 = 0.4945 | 1136.54 | 1.45534 | 1532.1
308.15 K, x2 = 0.607 | 1151.7 | 1.44502 | 1535.8
308.15 K, x2 = 0.697 | 1162.69 | 1.43944 | 1538.3
308.15 K, x2 = 0.7828 | 1172.5 | 1.43065 | 1540.6
308.15 K, x2 = 0.9104 | 1184.4 | 1.42459 | 1542.1
313.15 K, x2 = 0 | 1026.14 | 1.50415 | 1465
313.15 K, x2 = 0.1046 | 1057.33 | 1.49224 | 1485
313.15 K, x2 = 0.2035 | 1080.83 | 1.48108 | 1496.5
313.15 K, x2 = 0.3042 | 1101.56 | 1.47065 | 1505.9
313.15 K, x2 = 0.406 | 1119.32 | 1.46137 | 1513.2
313.15 K, x2 = 0.4945 | 1132.74 | 1.45369 | 1517.9
313.15 K, x2 = 0.607 | 1147.96 | 1.44349 | 1522.3
313.15 K, x2 = 0.697 | 1159.01 | 1.43784 | 1525.3
313.15 K, x2 = 0.7828 | 1168.89 | 1.42937 | 1528.1
313.15 K, x2 = 0.9104 | 1180.83 | 1.42327 | 1530.1
318.15 K, x2 = 0 | 1021.73 | 1.50181 | 1446.5
318.15 K, x2 = 0.1046 | 1053.13 | 1.49001 | 1467.7
318.15 K, x2 = 0.2035 | 1076.75 | 1.47899 | 1480.3
318.15 K, x2 = 0.3042 | 1097.59 | 1.46886 | 1490.4
318.15 K, x2 = 0.406 | 1115.44 | 1.45957 | 1498.5
318.15 K, x2 = 0.4945 | 1128.96 | 1.45198 | 1503.9
318.15 K, x2 = 0.607 | 1144.25 | 1.44199 | 1509
318.15 K, x2 = 0.697 | 1155.36 | 1.43632 | 1512.5
318.15 K, x2 = 0.7828 | 1165.3 | 1.42834 | 1515.7
318.15 K, x2 = 0.9104 | 1177.29 | 1.42194 | 1518.3
323.15 K, x2 = 0 | 1017.33 | 1.49948 | 1428.1
323.15 K, x2 = 0.1046 | 1048.93 | 1.4878 | 1450.6
323.15 K, x2 = 0.2035 | 1072.68 | 1.47691 | 1464.1
323.15 K, x2 = 0.3042 | 1093.63 | 1.46692 | 1475.1
323.15 K, x2 = 0.406 | 1111.58 | 1.45773 | 1483.9
323.15 K, x2 = 0.4945 | 1125.2 | 1.45015 | 1489.9
323.15 K, x2 = 0.607 | 1140.57 | 1.44042 | 1495.7
323.15 K, x2 = 0.697 | 1151.73 | 1.43462 | 1499.8
323.15 K, x2 = 0.7828 | 1161.76 | 1.42708 | 1503.5
323.15 K, x2 = 0.9104 | 1173.77 | 1.42061 | 1506.7
